Key:
USSR H1N1 virus [1] = type: cell-based, influenza A virus (A/USSR/77)
USSR H1N1 virus [2] = type: cell-based, influenza A virus (A/USSR/77); details: PTECs; 0.1 μM TG for 30 min
pdm H1N1 virus = type: cell-based, influenza A virus (A/California/07/2009); details: NPTr cells; 0.5 μM TG 30 min; […]
HEp2 cells = assay: Cell viability of HEp2 cells (CellTiter-Glo); type: cell-based, human; details: HEp-2 cells
Method: Spun supernatants were collected to infect HEp2 cells for 24 h for immuno-detection of RSV. TG doses used to prime HEp2 cells were non-toxic. 30 min TG treated cells were rinsed, cultured overnight and subjected to cell viability assays (CellTiter-Glo® Luminescent Cell Viability Assay kit, Promega. Results are shown in FIG. 22.

DDIT3, HSPA5 and HSP90B1 = type: cell-based, pig; details: NPTr cells, porcine myoblasts and NHBE cells; non-toxic TG, 30 min
RIG-I, OAS1 and PKR = type: cell-based, pig; details: NPTr cells (TG also NHBE cells and myoblasts); priming before or during infection
[3] = tested on: extracellular Ca^2+ influx; assay: Intracellular Ca2+ monitoring assay (Fluo-8) in NPTr cells; type: cell-based, pig; details: non-toxic doses (CPA up to 5 μM; TG 10 min)
[4] = tested on: PR8 H1N1 virus (A/Puerto Rico/8/1934); type: in vivo, BALB/c mice
human coronavirus OC43 = type: cell-based; details: MRC-5 cells
hCoV OC43 [5] = assay: hCoV OC43 production in NHBE cells (RT-qPCR); type: cell-based, human coronavirus OC43; details: 30 min pre-infection priming, 48 and 72 hpi
Method: Cells were primed with TG as indicated for 30 min, washed twice with PBS and infected with hCoV OC43 at 0.01 MOI (based on FFAs) for 3 h; after which cells were again washed twice with PBS and incubated in serum-free Promocell media (supplemented with 0.1 μg/ml TPCK trypsin). Culture media were harvested at 48 and 72 hpi for viral RNA extraction followed by one-step reverse transcription qPCR to detect the relative copy number of OC43 replicase polyprotein lab RNA. Indicated significance using Tukey's multiple comparisons test and percentage viral RNA reduction relative to corresponding DMSO control.

SARS-CoV-2 [6] = assay: SARS-CoV-2 replication in Calu-3 cells (RT-qPCR of media); type: cell-based
SARS-CoV-2 [7] = assay: SARS-CoV-2 replication in Vero E6 cells (RT-qPCR of media); type: cell-based
hCoV OC43 [8] = assay: hCoV OC43 replication in A549 cells (RT-qPCR); type: cell-based, human coronavirus OC43
USSR H1N1 virus [9] = assay: USSR H1N1 replication in A549 cells (M-gene RNA, RT-qPCR); type: cell-based, influenza A virus (A/USSR/77)
RSV [10] = assay: RSV replication in A549 cells (pfu/ml by immunostaining); type: cell-based, human respiratory syncytial virus; details: 30 min TG priming, 72 h infection
Method: FIG. 37—Pre- and post-infection priming with TG 24 h inhibited RSV replication. […] (A) In pre-infection, cells primed with TG or control DMSO, washed with PBS, cultured in fresh media for 24 h and infected with RSV at 0.1 MOI for 2 h followed by media replacement with fresh DMEM containing 2% FCS. (B) In post-infection, cells were first infected similarly for 24 h, then primed with TG or DMSO for 30 min, washed with PBS and replaced with fresh media. In both treatment groups (A and B), cells were infected for a total period of 72 h, after which spun supernatants were used to determine progeny virus output (pfu/ml) on HEp2 cells by immunostaining with mouse anti-RSV (F27) antibody. HEp2 cells were more permissive to RSV replication than A549 cells. (C) Comparison of TG and ribavirin (Riba) in the inhibition of RSV replication. HEp-2 cells were primed with TG, Riba or control DMSO as indicated for 30 min, rinsed with PBS and infected with RSV. Riba was continuously present during infection. Four days post-infection, media were sampled for the detection of viral M-gene RNA by one-step reverse transcription-qPCR. Unless otherwise indicated, significance (based on one-way ANOVA with Tukey's multiple comparison test) is relative to DMSO control.

USSR H1N1 virus [11] = assay: USSR H1N1 M-gene RNA in media of NPTr cells primed with stored or oil-mixed TG (RT-qPCR); type: cell-based, influenza A virus (A/USSR/77); details: NPTr cells primed at 0.5 μM TG
influenza A virus = details: MDCK cells; 0.001 μM TG over 48 h of infection; cited from earlier work
RSV [12] = details: human bronchial epithelial cell line; TG 0.1 uM for 24 h before infection; cited from earlier work
[13] = Tolerability of TG given to mice by oral gavage; details: 1 mg/kg

## C/C=C(/C)C(=O)O[C@H]1C(C)=C2[C@H]([C@@H]1OC(=O)CCCCCCC)[C@@](C)(OC(C)=O)C[C@H](OC(=O)CCC)[C@@]1(O)[C@H]2OC(=O)[C@@]1(C)O [TG, thapsigargin]
USSR H1N1 virus [1]
  progeny virus output vs DMSO control: marked reduction in virus output
USSR H1N1 virus [1]; NHBE cells, 5 nM TG for 30 min
  progeny virus output: dramatic reduction in progeny virus output
USSR H1N1 virus [1]; NHBE cells, 0.01 μM TG 30 min, […]
  virus production, TG before vs 6 h after infection: comparable reduction in virus production
USSR H1N1 virus [1]; NHBE cells, 30 min priming, […]
  Selectivity index (CC50/IC50): 8572.89
USSR H1N1 virus [1]; NHBE cells, 30 min priming, […], read-out: USSR virus inhibitory concentration IC50
  IC50: 0.00391 µM
USSR H1N1 virus [2]
  duration of the antiviral state after TG exposure: at least 24 h
Pdm H1N1 virus
  virus production, TG before vs 6 h after infection: comparable reduction in virus production
HEp2 cells
  CC50: 90 µM
DDIT3, HSPA5 and HSP90B1
  expression of ER stress associated genes: consistently elevated ER stress associated genes
RIG-I, OAS1 and PKR
  expression of type I IFN associated genes in response to infection: consistently increased the expression of type I IFN associated genes
[3]
  extracellular Ca^2+ influx: modest Ca^2+ influx
[4]; TG 30 ng by gavage daily
  body weight of surviving treated mice: progressive weight gain from 9 dpi
[4]; TG 30 ng by gavage daily, […]
  PR8 virus loads in lungs vs control mice: significantly lower
  gross lung pathology: more localised to the vicinity of virus entry site
[4]; mouse, in vivo
  survival of infected mice: 40%
Human coronavirus OC43; TG 0.05 or 0.5 μM 30 min pre-infection, HC pre-infection or continuous
  hCoV OC43 replication / progeny production: dramatic dose-responsive reduction in coronavirus replication
Human coronavirus OC43; TG-primed
  cell loss and cytopathic effects of infected cells: limited cell loss and little morphological change
hCoV OC43 [5]
  hCoV OC43 production: reduced hCoV OC43 production in a dose-dependent manner
SARS-CoV-2 [6]
  SARS-CoV-2, separate infection and co-infection with pdm 2009 H1N1: blocked
  SARS-CoV-2 replication, post-infection priming: just as effective in virus inhibition as pre-infection TG priming
SARS-CoV-2 [6]; Calu-3 cells, […], HC primed and continuously present
  SARS-CoV-2 replication: highly inhibitory
SARS-CoV-2 [7]
  SARS-CoV-2 replication: lack of effectiveness
hCoV OC43 [8]
  hCoV OC43, separate infection and co-infection with USSR H1N1: blocked
hCoV OC43 [8]; A549 cells, TG 30 min priming vs continuous RDV, […]
  blocking of hCoV OC43 replication, comparison with RDV: superior to remdesivir (RDV)
USSR H1N1 virus [9]
  USSR H1N1, separate infection and co-infection with hCoV OC43: blocked
USSR H1N1 virus [9]; A549 cells, TG 30 min priming vs continuous RDV
  blocking of USSR H1N1 replication, comparison with RDV: superior to remdesivir (RDV)
RSV [10]
  RSV replication, priming 24 h before or 24 h post-infection: strongly inhibited RSV replication
USSR H1N1 virus [11]; 1:1 volume ratio, 24 h at room temperature
  antiviral function after mixing TG-DMSO stock with olive oil or sesame oil: did not diminish TG antiviral function
USSR H1N1 virus [11]; 24 h at RT, relative to freshly thawed TG
  antiviral activity after incubation of TG stock solution on its own: some reduction in antiviral activity
NPTr cells; 30 min priming at doses used for infection studies
  cell viability after priming: no cytotoxic effect on cell viability
NPTr cells; 30 min priming, viability after 24 h
  CC50: 56.6 µM
NPTr cells; primed once with 0.5 μM TG for 30 min, over 20 h
  cell viability of primed cells, infected or uninfected: more viable than DMSO control cells
Influenza A virus
  progeny influenza virus output: increase progeny influenza virus output
RSV [12]
  RSV replication by RT-PCR: did not show reduction in virus replication
[13]
  clinical adverse effects: no detectable clinical adverse effects

From patent US20240116889A1, “ANTIVIRAL COMPOUNDS AND METHODS” (priority 2019, published 2024)
